Results as given in US20120202837A1, “SPIROCYCLIC PIPERIDINE DERIVATIVES USEFUL AS RENIN INHIBITORS” (priority 2009, published 2012).

What was measured:
Renin in human plasma = target: T1, Renin in human plasma (Homo sapiens, UniProt P00797); test: Inhibition of renin in human plasma; assay type: biochemical; conditions: human EDTA plasma, recombinant renin added at 1 nM, 6 μM substrate, 37° C., 1 hour
T1 construct: purchased Proteos; host or cells: added to human EDTA-collected plasma
T1 sequence (P00797 67-406): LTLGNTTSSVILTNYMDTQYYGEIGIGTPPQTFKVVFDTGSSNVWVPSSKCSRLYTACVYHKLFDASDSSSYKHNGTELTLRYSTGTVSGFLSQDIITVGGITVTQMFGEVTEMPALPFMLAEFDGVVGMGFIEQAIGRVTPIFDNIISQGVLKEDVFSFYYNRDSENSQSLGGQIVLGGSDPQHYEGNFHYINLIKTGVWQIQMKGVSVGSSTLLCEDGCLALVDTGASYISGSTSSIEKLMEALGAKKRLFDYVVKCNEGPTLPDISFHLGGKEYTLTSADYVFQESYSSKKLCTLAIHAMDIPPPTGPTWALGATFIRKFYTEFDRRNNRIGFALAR
Experimental: Human EDTA-collected plasma is rapidly thawed in warm water and centrifuged at 2900 g for 15 minutes at 4° C. The supernatant is collected and recombinant renin (Proteos) is added at a final concentration of 1 nM. The plasma is transferred to a Costar black 384 well plate (#3573). Renin inhibitors are added from a 17.5 fold concentrated DMSO solution and pre-incubated at 37° C. for 10 minutes. The internally-quench fluorescent peptide QX1520™-Lys-His-Pro-Phe-His-Leu-Val-Ile-His-Lys (5-FAM) (Anaspec) is diluted in 3M Tris pH 7.2, 200 mM EDTA and added to the plasma. The final concentrations are: 6 μM substrate, 342 mM Tris, 23 mM EDTA. The plate is incubated at 37° C. for 1 hour. The plate is read in a SpectraMax Gemini EM reader set at an excitation wavelength of 490 nm and an emission wavelength of 520 nm at times 0 and 1 hour. Background fluorescence at t=0 is subtracted from the measurement at t=1 hour. Inhibitory activity of the compounds is expressed as IC50.

Human recombinant renin = target: T2, Human recombinant renin (Homo sapiens, UniProt P00797); test: Inhibition of human recombinant renin (buffer assay); assay type: biochemical; conditions: buffer: 50 mM MOPS pH 7.4, 100 pM renin, 6 μM fluorescent peptide, 37° C., 3 hours
T2 construct: purchased Proteos
T2 sequence (P00797 67-406): T1 sequence (P00797 67-406)
Experimental: Human recombinant renin (Proteos) in 50 mM MOPS pH 7.4, 100 mM NaCl, 0.002% Tween 20 at a final concentration of 100 pM is incubated with inhibitors from a 50 fold concentrated DMSO solution and 6 μM of an internally-quench fluorescent peptide: DNP-Lys-His-Pro-Phe-His-Leu-Val-Ile-His-D,L-Amp (SEQ ID NO: 1); Paschalidou K. et al., Biochem J, 2004, 382, 1031). The reactions take place in a Costar 384 well black plate (#3573) at 37° C. for 3 hours. Fluorescence is measured at times 0 and 3 hours with a SpectraMax Gemini EM reader set at an excitation wavelength of 328 nm and at an emission wavelength of 388 nm. Background fluorescence at t=0 is subtracted from the measurement at t=3 hours. Inhibitory activity of the compounds is expressed as IC50.

| IC50 (Renin in human plasma) [pM] | IC50 (Human recombinant renin) [pM] | SMILES |
| --- | --- | --- |
| 18000 | 1600 | COCCCc1ccccc1-c1ccc([C@@H]2CNCC[C@]23OCc2cn(C)c(=O)cc23)c(C)c1 (racemic) [Example 5, rac-(1R,3′S)-3′-[2′-(3-Methoxypropyl)-3-methyl-4-biphenylyl]-5-methyl-3,5-dihydro-6H-spiro[furo[3,4-c]pyridine-1,4′-piperidin]-6-one] |
| 1000 | 260 | CC(=O)NCCc1ccccc1-c1onc([C@H]2CNCC[C@@]23OCc2cc(F)c(F)cc23)c1Br [Example 13, N-[2-(2-(4-Bromo-3-[(1R,3′R)-5,6-difluoro-3H-spiro[2-benzofuran-1,4′-piperidin]-3′-yl]-5-isoxazolyl)phenyl)ethyl]acetamide] |
| 820 | 660 | Cc1cc(-c2ccccc2CCNC(=O)CO)ccc1[C@H]1CNCC[C@@]12OC(=O)c1cc(F)c(F)cc12 [Example 11, N-(2-{4′-[(1R,3′S)-5,6-Difluoro-3-oxo-3H-spiro[2-benzofuran-1,4′-piperidin]-3′-yl]-3′-methyl-2-biphenylyl}ethyl)-2-hydroxyacetamide] |
| 1400 | 200 | CC(=O)NCCc1ccccc1-c1ccc([C@@H]2CNCC[C@]23OCc2cc(F)c(F)cc23)c(C)c1 (racemic) [Example 4, rac-N-(2-{4′-[(1R,3′S)-5,6-Difluoro-3H-spiro[2-benzofuran-1,4′-piperidin]-3′-yl]-3′-methyl-2-biphenylyl}ethyl)acetamide] |
